Patent US20060241067A1, “Methods For inhibiting angiogenesis, cell migration, cell adhesion, and cell survival” (priority 2002, published 2006)
Entries after “also recorded” stand apart in the source; their conditions may differ.

How the values were obtained:
[1] = system: chick chorioallantoic membrane (CAM); assay: Apoptosis markers in CAM blood vessels in vivo (Annexin V, cleaved caspases, TUNEL, DNA gels); set-up: species or system chicken; conditions: bFGF-stimulated CAMs
Method: CAM assays were performed as described (Kim et al. (2000) Am. J. Path. 156:1345-1362). Saline or bFGF stimulated CAMs were treated for 24 h with 20 μg anti-α5β1, anti-αvβ3 or control antibodies and then injected intravenously with 50 μl Annexin V-FITC. CAMs were harvested after 2 h, then analyzed by confocal microscopy. Alternatively, CAMs treated as above were excised, minced on ice, and treated with 0.1% dispase/0.1% collagenase for 1 h at 37° C. Single cell suspensions were incubated with FITC-Annexin V and analyzed as described above. bFGF stimulated CAMs were also treated with anti-α5β1 or anti-αvβ3 in the presence or absence of 500 μM caspase-3, -8 or -9 inhibitors. bFGF stimulated CAMs were also transfected with 4 μg N1-GFP, dnPKA or PKAcat expression plasmids. Freshly excised CAMs were homogenized in ice cold RIPA buffer containing protease inhibitors and immunoblotted to detect intact and cleaved caspase 3 or 8. For all treatment groups, n=10. CAMs were fixed with 3.7% paraformaldehyde prior to excision. The average number of blood vessel branch points per treatment group+/−SEM is presented. Some excised CAMs were cryopreserved, cut into 5 μm sections, immunostained with anti-cleaved caspase 3, anti-cleaved caspase 8 and anti-VFW antibodies (to detect blood vessels). CAMs were also stained by the TUNEL method to detect fragmented DNA.

HUVECS [2] = assay: Staining of actin filaments and focal contacts (rhodamine phalloidin, anti-vinculin); format: cell-based, human
Method: Round […] glass coverslips were coated with 5 μg/ml vitronectin for 1 hour at 37° C., then blocked with 3% bovine serum albumin for 2 hours at 37° C. HUVECS were removed from culture dishes by trypsizination, washed in serum-free culture medium, and resuspended in endothelial basal culture medium. Cells were then incubated for one hour at 37° C. on coated coverslips. Cells were incubated in the presence of 25 μg/ml anti-α5β1, anti-α2β1 or no antibodies for 60 minutes. Alternatively, cells in endothelial growth medium containing VEGF and bFGF but no serum were plated on coverslips for 48 hours and then treated with cAMP or medium. Coverslips were then washed to remove unbound cells, fixed for 5 minutes in 3.7% paraformaldehyde and permeabilized in 0.3% TX-100 for 3 minutes. Coverslips were incubated with 0.2 μg/ml anti-vinculin antibodies or rhodamine phalloidin (20 ng/ml) in 20 mg/ml bovine serum albumin in phosphate buffered saline for one hour at room temperature. Coverslips were well washed in PBS and incubated in 10 μg/ml goat anti-mouse-Alexa 568 (for anti-vinculin) for 1 hour at room temperature. Coverslips were mounted using mounting medium prior to fluorescent microsopy.

HUVECS [3] = assay: Time lapse videomicroscopy of migrating endothelial cells; format: cell-based, human; conditions: 500 μM dibutyryl-cAMP, vitronectin
Method: 2.5-cm-diameter glass coverslips were coated with 5 μg/ml vitronectin for 1 hour at 37° C., then blocked with 3% bovine serum albumin for 2 hours. HUVECs were removed from culture dishes by trypsizination, and plated on coverslips for 48 hours. Coverslips were then placed on the microscope stage (Zeiss, Oberkochen, Germany) connected to a Charged Coupled Device (CCD) camera and viewed at a 200× magnification in bright field. Cells on the coverslips were kept at 37° C. with 5% CO2, bathed in culture media with 20 mM HEPES (pH7.4). Images were recorded using IP Lab software (Webster, N.Y.) at 1-minute intervals for 60 minutes. Dibutyryl-cAMP was then directly added into the culture medium at concentration of 500 μM. Images of cells were then recorded for an additional 60 minutes at 1-minute intervals. Cell shape and migration distance changes were quantified using IMAQ Vision Builder software (National Instruments Corporation, Austin, Tex.). Cell shape and nuclear positions were measured at 10-minute time points. Ellipse Ratio was used as a parameter for polarity. As cell shape approaches a circle, the Ellipse Ratio approaches the number one. Distance migrated was determined by measuring the distance nuclei moved in ten minute intervals. […] Images were recorded using IP Lab Spectrum software (Webster, N.Y.) at 1-minute intervals for 60 minutes. […]

[4] = system: Human umbilical vein endothelial cells (HUVEC); assay: Cell adhesion (attachment) assay on ECM substrates; format: cell-based; conditions: cAMP treatment or PKA catalytic subunit transfection
Method: (§1) Human umbilical vein endothelial cells (HUVEC) were grown in Endothelial Growth Medium (containing 2% fetal bovine serum, bFGF and VEGF) (Clonetics, San Diego, Calif.). To render HUVECs quiescent for Rac and/or Rho assays, monolayers of endothelial cells were incubated for 18 hrs in Endothelial Basal Medium supplemented with 0.1% serum (Clonetics). Cell migration and adhesion assays on ECM substrates were performed as previously described in Kim et al. (S. Kim et al., Amer. J. Biol. Chem., 275:33920-33928 (2000); and S. Kim et al., Amer. J. Path., 156:1345-1362 (2000)).

Rac = Rac activity assay (GST-PBD affinity precipitation); format: cell-based, human; conditions: vitronectin 30 minutes, cAMP, PTHrP or transfection
Method: as §1
Rho activity was determined by measuring the amount of Rho affinity bound to GST-Rhotekin binding domain (RBD). Levels of active Rho were determined by Western blotting affinity precipitated protein with anti-Rho antibodies while total Rho levels were measured by immunoblotting total cell lysates with anti-Rho. Rac activity was determined by measuring the amount of Rac affinity precipitated by the GST-p21-activated protein binding domain, PBD (Upstate Biotechnology, Syracuse, N.Y.). Levels of active Rac were determined by immunoblotting affinity precipitated protein with anti-Rac antibodies. […] Total Rac levels were measured by immunoblotting total cell lysates with anti-Rac.

With `CCCC(=O)Nc1ncnc2c1ncn2[C@@H]1O[C@@H]2COP(=O)(O)O[C@H]2[C@H]1OC(=O)CCC` [dibutyryl cAMP] the “endothelial cell apoptosis in vivo (TUNEL staining)” value [1] was “induces endothelial cell apoptosis in vivo”, the “increase in the number of focal adhesions” value (HUVECS [2]; cAMP treated versus untreated cells) was 3 fold and the “cell shape, stress fibers and actin remodeling” value (HUVECS [2]; cAMP treatment or transfection, vitronectin) was “remain round and flat and exhibit neither stress fibers nor cortical actin; also recorded: inhibited actin remodeling and induced a flattened morphology”. For the same molecule, the “localization of Rho A” value (HUVECS [2]; immunolocalization, cAMP treated cells) was “stimulates the translocation of Rho A to the plasma membrane”, the “cell shape (polarity)” value (HUVECS [3]) was “rapidly induces a flattening of the cell shape” and the “endothelial cell migration (distance moved by nuclei)” value (HUVECS [3]) was “rapidly inhibits endothelial cell migration”. For the same molecule, the “cell attachment to vitronectin” value [4] was “enhanced cell attachment to vitronectin”, the “Rac activation (RacGTP to total Rac)” value (Rac) was “blocked” and the “Rac activation (RacGTP to total Rac)” value (Rac; listed as cell permeable cAMP) was “inhibits Rac activation”.
